Measured values from patent publication US5153176A, “Tripeptide derivatives and protease inhibitor composition comprising the same” (Nitto Boseki Co., Ltd., priority 1990, dated 1992).
Where a name gives a salt, the structure may show the parent alone. Read-outs that look alike come from different tables or passages of the source. Where a SMILES comes first, the peptide text is derived from it. [ ]: non-standard residue; d: D form. The star is where a group is joined. Tos = Cc1ccc(S(=O)(=O)*)cc1; PhAc = O=C(Cc1ccccc1)*

Assays:
Type in all cases: biochemical
plasmin = molecular target: T1, plasmin (Homo sapiens, UniProt P00747); test: Assay for inhibitory activity against plasmin (synthetic substrate PS-994); settings: for IC50: PS-994, pH 7.8, 37° C.
T1 construct: purchased Sankyo (Sankyo Color Test α2 -PI Assay Kit Standard)
From the text: (§1) As synthetic substrate used to examine the activity of the inhibitor for inhibiting substrate decomposition with the enzyme, there were used PS-994 (H-D-Lys(Tos)-Phe-Lys-CHA.2HCl, manufactured by Nitto Boseki Co., Ltd.) for plasmin, PS-915 (H-D-Phe-Pro-Arg-CHA.2HCl, manufactured by Nitto Boseki Co., Ltd.) for thrombin and trypsin, PS-2000 (Z-D-Lys(HCO)-Gly-Arg-CHA.HCl, manufactured by Nitto Boseki Co., Ltd.) for factor Xa, S-2302 (H-D-Pro-Phe-Arg-pNA, manufactured by Kabi Co.) for kallikrein, and MUK-34: [drawing 5] for urokinase.
(§2) As plasmin, thrombin, trypsin, factor Xa, kallikrein and urokinase, there were used 0.3 CU/ml of Sankyo Color Test α2 -PI Assay Kit Standard, 1.2 NIH U/ml of Sankyo Color Test ATIII Assay Kit, 2 μg/ml of Code 3703 manufactured by Worsingstone Co., 0.25 U/ml of human factor Xa manufactured by Boehringer Mannheim, 0.12 U/ml of human plasma kallikrein manufactured by Kabi Co., and 1000 U/ml of Mochida Pharmaceutical Urokinase 60,000 (60,000 U/vial), respectively. In the case of CHA type substrate, a color-forming termination solution for Sankyo Color Test Kit was used. Enzyme reactions were carried out at 37° C.
Assay For Inhibitory Activity Against Plasmin
Each aqueous solution (0.1 ml) of the inhibitor having various concentrations was added to 0.4 ml of buffer (150 mM sodium chloride aqueous solution containing 100 mM Tris, pH 7.8) and the mixture was heated for 5 minutes. After 0.2 ml of the plasmin solution was added thereto, the mixture was reacted for 5 minutes. After 0.1 ml of PS-994 solution (10 mM) was added thereto, and the mixture was again reacted for 5 minutes. Then, 2.0 ml of the color-forming termination solution was added to the reaction mixture. Then the mixture was allowed to stand for 10 minutes and absorbance was measured at 700 nm. A concentration of the inhibitor in the reaction system showing 1/2 absorbance that of the case where no inhibitor was present was determined to be IC50.

trypsin = molecular target: T2, trypsin (Bos taurus, UniProt P00760); test: Assay for inhibitory activity against trypsin (synthetic substrate PS-915); settings: for IC50: PS-915, pH 8.0, 37° C.
T2 construct: purchased Worsingstone Co. (so in the source)
T2 sequence (P00760 24-246): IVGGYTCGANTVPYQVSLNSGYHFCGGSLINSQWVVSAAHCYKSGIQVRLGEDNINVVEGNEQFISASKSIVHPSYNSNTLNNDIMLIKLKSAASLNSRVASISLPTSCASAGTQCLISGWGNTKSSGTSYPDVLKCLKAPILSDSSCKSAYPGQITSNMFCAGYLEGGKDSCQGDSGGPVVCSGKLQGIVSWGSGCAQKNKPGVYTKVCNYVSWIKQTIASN
From the text: as §1, §2
Assay For Inhibitory Activity Against Trypsin
After 0.1 ml of an aqueous solution of the inhibitor was added to 0.5 ml of buffer (150 mM sodium chloride aqueous solution containing 150 mM Tris, pH 8.0) and the mixture was heated for 5 minutes, 0.1 ml of trypsin solution was added thereto. The mixture was reacted for 5 minutes. Furthermore, 0.1 ml of PS-915 solution (10 mM) was added thereto. The mixture was again reacted for 5 minutes. Then, 2 ml of the color-forming termination solution [containing 2.5 mg/ml of soybean trypsin inhibitor (manufactured by Sigma Co., No. T-9003)] was added to the reaction mixture. Then the mixture was allowed to stand for 10 minutes and absorbance was measured at 700 nm. IC50 was determined by the method described above.

urokinase = molecular target: T3, urokinase (Homo sapiens, UniProt P00749); test: Assay for inhibitory activity against urokinase (synthetic substrate MUK-34); settings: for IC50: MUK-34, pH 8.20, 37° C.
T3 construct: purchased Mochida Pharmaceutical Urokinase 60,000 (60,000 U/vial)
From the text: as §1, §2
Assay For Inhibitory Activity Against Urokinase
An aqueous solution (0.1 ml) of […] the inhibitor was added to 0.3 ml of buffer (150 mM sodium chloride aqueous solution containing 50 mM Tris, pH 8.20) and the mixture was heated for 5 minutes. Thereafter 0.1 ml of urokinase solution (containing 50 mM Tris, 150 mM sodium chloride aqueous solution and 0.1% BSA, pH 8.20) was added thereto, and the mixture was reacted for 5 minutes. Furthermore, 10 mM MUK-34 aqueous solution (0.1 ml) was added thereto, and the mixture was reacted for 5 minutes. Then 10% acetic acid aqueous solution (2.0 ml) was added to the mixture to terminate the reaction. Absorbance was measured at 405 nm and IC50 was determined by the method described above.

human factor Xa = molecular target: T4, human factor Xa (Homo sapiens, UniProt P00742); test: Assay for inhibitory activity against factor Xa (synthetic substrate PS-2000); settings: for IC50: PS-2000, pH 8.5, 37° C.
T4 construct: purchased Boehringer Mannheim
From the text: as §1, §2
Assay For Inhibitory Activity Against Factor Xa
To 0.3 ml of buffer (150 mM sodium chloride aqueous solution containing 50 mM Tris, pH 8.5) was added 0.1 ml each of an aqueous solution of the inhibitor having various concentrations. The mixture was heated for 5 minutes. Then, 0.1 ml of factor Xa solution (150 mM solution chloride aqueous solution containing 50 mM Tris and 20 mM calcium chloride, pH 8.5) was added thereto, and the mixture was reacted for 5 minutes. Furthermore,5% polyvinylpyrrolidone solution (0.1 ml) containing 10 mM PS-2000 was added thereto, and the mixture was again reacted for 5 minutes. Then, 2 ml of the color-forming termination solution was added to the reaction mixture. Then the mixture was allowed to stand for 10 minutes and absorbance was measured at 700 nm. IC50 was determined by the method described above.

human plasma kallikrein = molecular target: T5, human plasma kallikrein (Homo sapiens, UniProt P03952); test: Assay for inhibitory activity against kallikrein (synthetic substrate S-2302); settings: for IC50: S-2302, pH 8.0, 37° C.
T5 construct: purchased Kabi Co
From the text: as §1, §2
Assay For Inhibitory Activity Against Kallikrein
To 0.4 ml of buffer (150 mN sodium chloride aqueous solution containing 50 mM Tris, pH 8.0) was added 0.1 ml each of aqueous solutions of the inhibitor having various concentrations and the mixture was heated for 5 minutes. Then, 0.1 ml of kallikrein solution (containing 0.5% bovine serum albumin, No. A-8022 of Sigma Co.) was added thereto, and the mixture was reacted for 5 minutes. Furthermore, 10 mM S-2302 aqueous solution (0.1 ml) was added thereto, and the mixture was again reacted for 5 minutes. Then, 5 ml of 20% acetic acid aqueous solution was added to terminate the reaction. Absorbance was measured at 405 nm and IC50 was determined by the method described above.

thrombin = molecular target: T6, thrombin (Homo sapiens, UniProt P00734); test: Assay for inhibitory activity against thrombin (synthetic substrate PS-915); settings: for IC50: PS-915, pH 8.5, 37° C.
T6 construct: purchased Sankyo (Sankyo Color Test ATIII Assay Kit)
From the text: as §1, §2
Assay For Inhibitory Activity Against Thrombin
Each aqueous solution (0.1 ml) of the inhibitor having various concentrations was added to 0.4 ml of buffer (150 mM sodium chloride aqueous solution containing 150 mM Tris, pH 8.5) and the mixture was heated for 5 minutes. Then, 0.2 ml of the thrombin solution was added thereto and the mixture was reacted for 5 minutes. After 0.1 ml of PS-915 solution (10 mM) was added thereto, the mixture was again reacted for 5 minutes. Then, 2 ml of the color-forming termination solution was added to the reaction mixture. Then the mixture was allowed to stand for 10 minutes and absorbance was measured at 700 nm. IC50 was determined by the method described above.

[1] = Table 3, compounds of the invention, read-out: Plasmin
[2] = Table 3, compounds of the invention, read-out: Trypsin
[3] = Table 3, compounds of the invention, read-out: Urokinase
[4] = Table 3, compounds of the invention, read-out: Factor
[5] = Table 3, compounds of the invention, read-out: Kallikrein
[6] = Table 3, compounds of the invention, read-out: Thrombin
[7] = Table 2, known compounds, read-out: IC50 Plasmin
[8] = Table 2, known compounds, read-out: IC50 Trypsin
[9] = Table 2, known compounds, read-out: IC50 Urokinase
[10] = Table 2, known compounds, read-out: IC50 Factor Xa
[11] = Table 2, known compounds, read-out: IC50 Kallikrein
[12] = Table 2, known compounds, read-out: IC50 Thrombin

T5 sequence (P03952 20-638): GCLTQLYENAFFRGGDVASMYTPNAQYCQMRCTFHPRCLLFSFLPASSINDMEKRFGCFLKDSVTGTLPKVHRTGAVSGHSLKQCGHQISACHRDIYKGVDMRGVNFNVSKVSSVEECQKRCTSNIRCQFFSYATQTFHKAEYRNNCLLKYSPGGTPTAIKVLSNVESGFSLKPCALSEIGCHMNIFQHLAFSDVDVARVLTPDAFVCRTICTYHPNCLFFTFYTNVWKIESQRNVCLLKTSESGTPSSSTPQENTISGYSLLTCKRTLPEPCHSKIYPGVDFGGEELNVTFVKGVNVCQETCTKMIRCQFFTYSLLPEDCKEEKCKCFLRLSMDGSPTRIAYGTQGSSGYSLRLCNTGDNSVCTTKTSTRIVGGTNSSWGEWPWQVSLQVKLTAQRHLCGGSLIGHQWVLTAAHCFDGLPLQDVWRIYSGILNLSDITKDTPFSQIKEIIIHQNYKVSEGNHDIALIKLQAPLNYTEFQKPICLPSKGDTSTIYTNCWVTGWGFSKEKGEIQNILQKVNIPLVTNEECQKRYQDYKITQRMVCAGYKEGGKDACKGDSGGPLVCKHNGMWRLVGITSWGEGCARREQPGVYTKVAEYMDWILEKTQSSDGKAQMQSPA
T4 sequence (P00742 235-488 limits assumed): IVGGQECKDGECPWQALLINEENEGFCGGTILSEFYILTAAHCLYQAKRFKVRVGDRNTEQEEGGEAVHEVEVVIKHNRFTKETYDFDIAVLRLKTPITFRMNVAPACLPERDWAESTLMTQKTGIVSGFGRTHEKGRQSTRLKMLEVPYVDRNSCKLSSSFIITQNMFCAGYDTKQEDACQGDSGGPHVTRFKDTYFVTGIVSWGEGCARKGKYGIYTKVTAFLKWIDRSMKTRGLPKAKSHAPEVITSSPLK
T4 sequence (P00742 41-179 partner limits assumed): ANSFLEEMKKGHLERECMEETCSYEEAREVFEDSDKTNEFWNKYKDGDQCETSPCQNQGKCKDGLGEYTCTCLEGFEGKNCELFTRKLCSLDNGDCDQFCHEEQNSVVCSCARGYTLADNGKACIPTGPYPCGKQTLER
T1 sequence (P00747 581-810 limits assumed, species assumed): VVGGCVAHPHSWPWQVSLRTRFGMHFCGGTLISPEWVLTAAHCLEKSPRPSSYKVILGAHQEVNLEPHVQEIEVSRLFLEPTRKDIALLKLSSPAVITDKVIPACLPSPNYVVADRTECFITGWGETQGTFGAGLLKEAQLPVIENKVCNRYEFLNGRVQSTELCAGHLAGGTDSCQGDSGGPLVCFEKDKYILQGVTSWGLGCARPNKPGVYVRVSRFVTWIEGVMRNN
T1 sequence (P00747 97-580 partner limits assumed, species assumed): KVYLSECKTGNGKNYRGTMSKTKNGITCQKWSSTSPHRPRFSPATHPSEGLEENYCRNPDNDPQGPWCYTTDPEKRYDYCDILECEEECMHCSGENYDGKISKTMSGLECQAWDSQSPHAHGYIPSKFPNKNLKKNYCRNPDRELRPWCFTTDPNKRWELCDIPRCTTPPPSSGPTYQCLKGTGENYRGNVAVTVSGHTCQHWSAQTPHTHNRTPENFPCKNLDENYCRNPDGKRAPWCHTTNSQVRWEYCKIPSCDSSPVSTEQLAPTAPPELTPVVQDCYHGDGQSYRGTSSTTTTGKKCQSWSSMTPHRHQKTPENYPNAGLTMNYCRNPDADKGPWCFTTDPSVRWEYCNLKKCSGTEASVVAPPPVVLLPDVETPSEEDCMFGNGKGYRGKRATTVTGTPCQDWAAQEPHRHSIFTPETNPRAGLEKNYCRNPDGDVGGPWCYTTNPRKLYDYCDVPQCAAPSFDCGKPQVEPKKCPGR

IC50 (plasmin; [1]) | IC50 (trypsin; [2]) | IC50 (human factor Xa; [4]) | IC50 (human plasma kallikrein; [5]) | IC50 (thrombin; [6]) | Compound | IC50 (urokinase; [3]) | inhibitory activity against plasmin (in words) (plasmin) | IC50 (plasmin; [7]) | inhibitory activity against trypsin (in words) (trypsin) | IC50 (trypsin; [8]) | inhibitory activity against urokinase (in words) (urokinase) | IC50 (urokinase; [9]) | inhibitory activity against factor Xa (in words) (human factor Xa) | IC50 (human factor Xa; [10]) | inhibitory activity against kallikrein (in words) (human plasma kallikrein) | IC50 (human plasma kallikrein; [11]) | inhibitory activity against thrombin (in words) (thrombin) | IC50 (thrombin; [12])
 |  |  |  |  | N=C(N)NCCC[C@@H](C=O)NC(=O)[C@@H]1CCCN1C(=O)[C@H](N)Cc1ccccc1 [Example A2, D-phenylalanyl-L-prolyl-L-argininal, reference compound] |  | do not strongly inhibit | 19000 nM | inhibit | 69 nM | do not strongly inhibit | 42000 nM | do not strongly inhibit | 25000 nM | do not strongly inhibit | 31000 nM | inhibit | 25 nM
60 nM | 35 nM | 460 nM | 38 nM | 630 nM | N-α-N-ε-di(p-tosyl)-D-lysyl-L-prolyl-L-argininal1/2 sulfate [Example 17] | 3500 nM |  |  |  |  |  |  |  |  |  |  |  | 
 |  |  |  |  | CCOC(=O)c1ccc(OC(=O)CCCCCN=C(N)N)cc1 [Example A3, reference compound] |  |  | 40000 nM |  | 1900 nM |  | 1100 nM |  | 13000 nM |  | 4500 nM |  | 32000 nM
550 nM | 32 nM | 3500 nM | 40 nM | 200 nM | N-ε-(2-naphthalenesulfonyl)-D-lysyl-L-prolyl-L-argininal sulfate [Example 3] |  |  |  |  |  |  |  |  |  |  |  |  | 
250 nM | 43 nM | 1100 nM | 170 nM | 1200 nM | N-α-(2-naphthalenesulfonyl)-N-ε-(p-tosyl)-D-lysyl-L-prolyl-L-argininal 1/2 sulfate [Example 20] | 6600 nM |  |  |  |  |  |  |  |  |  |  |  | 
1000 nM | 11 nM | 4800 nM | 200 nM | 350 nM | N-ε-(p-toluoyl)-D-lysyl-L-prolyl-L-argininal sulfate [Example 7] | 7900 nM |  |  |  |  |  |  |  |  |  |  |  | 
2600 nM | 68 nM | 15000 nM | 200 nM | 930 nM | N=C(N)NCCC[C@@H](C=O)NC(=O)[C@@H]1CCCN1C(=O)[C@H](N)CCCCNC(=O)Cc1ccccc1 [Example 9, N-ε-phenylacetyl-D-lysyl-L-prolyl-L-argininal sulfate] (H-[dK](PhAc)-Pro-Arg-aldehyde) | 83000 nM |  |  |  |  |  |  |  |  |  |  |  | 
 |  |  |  |  | CC(=O)N[C@@H](CC(C)C)C(=O)N[C@@H](CC(C)C)C(=O)N[C@H](C=O)CCCNC(=N)N [Example A1, acetyl-L-leucyl-L-leucyl-argininal, reference compound] |  | do not strongly inhibit |  | inhibit |  | do not strongly inhibit |  | do not strongly inhibit |  | do not strongly inhibit |  |  | 

Compound | IC50 (plasmin; [1]) | IC50 (trypsin; [2]) | IC50 (human factor Xa; [4]) | IC50 (human plasma kallikrein; [5]) | IC50 (thrombin; [6]) | IC50 (urokinase; [3]) | inhibitory activity against plasmin (in words) (plasmin) | IC50 (plasmin; [7]) | inhibitory activity against trypsin (in words) (trypsin) | IC50 (trypsin; [8]) | inhibitory activity against urokinase (in words) (urokinase) | IC50 (urokinase; [9]) | inhibitory activity against factor Xa (in words) (human factor Xa) | IC50 (human factor Xa; [10]) | inhibitory activity against kallikrein (in words) (human plasma kallikrein) | IC50 (human plasma kallikrein; [11]) | inhibitory activity against thrombin (in words) (thrombin) | IC50 (thrombin; [12])
N-ε-acetyl-D-lysyl-L-prolyl-L-argininal sulfate [Example 10] | 4300 nM | 60 nM | 4100 nM | 4000 nM | 330 nM | 40000 nM |  |  |  |  |  |  |  |  |  |  |  | 
N-α-isobutoxycarbonyl-N-ε-(p-tosyl)-D-lysyl-L-prolyl-L-argininal 1/2 sulfate [Example 15] | 59 nM | 22 nM | 350 nM | 37 nM | 440 nM | 1400 nM |  |  |  |  |  |  |  |  |  |  |  | 
N-ε-Ethanesulfonyl-D-lysyl-L-prolyl-L-argininal sulfate [Example 5] | 6300 nM | 65 nM | 18000 nM | 5400 nM | 1300 nM | 81000 nM |  |  |  |  |  |  |  |  |  |  |  | 
Cc1ccc(S(=O)(=O)NCCCC[C@@H](N)C(=O)N2CCC[C@H]2C(=O)N[C@H](C=O)CCCNC(=N)N)cc1 [Example 1, N-ε-(p-tosyl)-D-lysyl-L-prolyl-L-argininal sulfate] (H-[dK](Tos)-Pro-Arg-aldehyde) | 1500 nM | 48 nM | 6500 nM | 29 nM | 300 nM | 35000 nM |  |  |  |  |  |  |  |  |  |  |  | 
